How the values were obtained:
[1] = The activity of cGPK, activated by cGMP, is measured by its ability to transfer phosphate from [gamma-32P]ATP to histone.
[2] = biological target: Myosin light chain kinase, smooth muscle (Gallus gallus, UniProt P11799); assay: MLCK assay; details: pH 7.2; 30 °C
Experimental: The activity of MLCK is measured by its ability to transfer 32P from [gamma-32P]ATP to myosin light-chain.

[3] = biological target: Tyrosine-protein phosphatase non-receptor type 2 (Mus musculus); assay: TPK assay
Experimental: The activity of TPK is measured by its ability to transfer 32P from [gamma-32P]ATP to Poly(Glu,Tyr; 4:l).

[4] = biological target: Protein kinase C beta type (Rattus norvegicus, UniProt P68403); assay: MLCK assay
[5] = biological target: T1, cGMP-dependent protein kinase 1 (Bos taurus, UniProt P00516); assay: cGPK assay
T1 sequence (P00516 whole entry): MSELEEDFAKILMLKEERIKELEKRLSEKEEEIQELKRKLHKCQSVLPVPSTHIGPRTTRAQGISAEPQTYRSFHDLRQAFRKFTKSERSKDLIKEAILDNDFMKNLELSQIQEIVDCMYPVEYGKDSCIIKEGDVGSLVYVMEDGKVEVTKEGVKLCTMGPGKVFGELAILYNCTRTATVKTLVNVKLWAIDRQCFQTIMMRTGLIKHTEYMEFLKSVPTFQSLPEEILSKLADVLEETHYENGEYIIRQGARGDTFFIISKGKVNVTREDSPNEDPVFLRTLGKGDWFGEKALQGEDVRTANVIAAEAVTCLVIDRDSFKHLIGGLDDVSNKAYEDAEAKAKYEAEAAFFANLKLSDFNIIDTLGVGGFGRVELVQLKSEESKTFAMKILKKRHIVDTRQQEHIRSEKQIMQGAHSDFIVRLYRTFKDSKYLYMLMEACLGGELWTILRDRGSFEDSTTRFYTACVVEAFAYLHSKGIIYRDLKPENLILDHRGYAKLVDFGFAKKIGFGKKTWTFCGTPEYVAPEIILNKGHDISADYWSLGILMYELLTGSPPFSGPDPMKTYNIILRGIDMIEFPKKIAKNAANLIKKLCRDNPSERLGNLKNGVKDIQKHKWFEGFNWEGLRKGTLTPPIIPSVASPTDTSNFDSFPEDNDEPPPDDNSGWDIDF
Experimental: The activity of cGPK, activated by cGMP, is measured by its ability to transfer phosphate from [gamma-32P]ATP to histone.

[6] = biological target: cAMP-dependent protein kinase catalytic subunit alpha (Bos taurus, UniProt P00517); assay: PKA assay
Experimental: The activity of PKA, activated by cAMP, is measured by its ability to transfer phosphate from [gamma-32P]ATP to histone.

Sequence of Protein kinase C beta type (P68403 whole entry): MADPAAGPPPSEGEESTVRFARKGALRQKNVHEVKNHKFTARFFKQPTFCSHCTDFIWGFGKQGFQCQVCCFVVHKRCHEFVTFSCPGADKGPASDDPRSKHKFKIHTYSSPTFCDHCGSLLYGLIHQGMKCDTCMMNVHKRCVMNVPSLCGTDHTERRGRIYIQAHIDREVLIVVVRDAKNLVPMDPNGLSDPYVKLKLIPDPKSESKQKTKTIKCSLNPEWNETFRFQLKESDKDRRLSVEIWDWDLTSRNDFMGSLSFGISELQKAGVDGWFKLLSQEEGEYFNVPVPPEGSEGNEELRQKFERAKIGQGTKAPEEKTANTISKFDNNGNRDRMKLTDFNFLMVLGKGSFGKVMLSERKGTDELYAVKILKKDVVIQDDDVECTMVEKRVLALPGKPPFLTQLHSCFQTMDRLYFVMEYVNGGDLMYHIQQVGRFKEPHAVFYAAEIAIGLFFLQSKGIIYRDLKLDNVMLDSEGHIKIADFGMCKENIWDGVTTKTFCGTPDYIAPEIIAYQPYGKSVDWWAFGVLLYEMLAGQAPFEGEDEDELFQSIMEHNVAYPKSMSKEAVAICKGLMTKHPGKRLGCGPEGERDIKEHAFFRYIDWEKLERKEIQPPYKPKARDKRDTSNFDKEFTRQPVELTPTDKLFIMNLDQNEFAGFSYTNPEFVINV
Sequence of Myosin light chain kinase, smooth muscle (P11799 whole entry): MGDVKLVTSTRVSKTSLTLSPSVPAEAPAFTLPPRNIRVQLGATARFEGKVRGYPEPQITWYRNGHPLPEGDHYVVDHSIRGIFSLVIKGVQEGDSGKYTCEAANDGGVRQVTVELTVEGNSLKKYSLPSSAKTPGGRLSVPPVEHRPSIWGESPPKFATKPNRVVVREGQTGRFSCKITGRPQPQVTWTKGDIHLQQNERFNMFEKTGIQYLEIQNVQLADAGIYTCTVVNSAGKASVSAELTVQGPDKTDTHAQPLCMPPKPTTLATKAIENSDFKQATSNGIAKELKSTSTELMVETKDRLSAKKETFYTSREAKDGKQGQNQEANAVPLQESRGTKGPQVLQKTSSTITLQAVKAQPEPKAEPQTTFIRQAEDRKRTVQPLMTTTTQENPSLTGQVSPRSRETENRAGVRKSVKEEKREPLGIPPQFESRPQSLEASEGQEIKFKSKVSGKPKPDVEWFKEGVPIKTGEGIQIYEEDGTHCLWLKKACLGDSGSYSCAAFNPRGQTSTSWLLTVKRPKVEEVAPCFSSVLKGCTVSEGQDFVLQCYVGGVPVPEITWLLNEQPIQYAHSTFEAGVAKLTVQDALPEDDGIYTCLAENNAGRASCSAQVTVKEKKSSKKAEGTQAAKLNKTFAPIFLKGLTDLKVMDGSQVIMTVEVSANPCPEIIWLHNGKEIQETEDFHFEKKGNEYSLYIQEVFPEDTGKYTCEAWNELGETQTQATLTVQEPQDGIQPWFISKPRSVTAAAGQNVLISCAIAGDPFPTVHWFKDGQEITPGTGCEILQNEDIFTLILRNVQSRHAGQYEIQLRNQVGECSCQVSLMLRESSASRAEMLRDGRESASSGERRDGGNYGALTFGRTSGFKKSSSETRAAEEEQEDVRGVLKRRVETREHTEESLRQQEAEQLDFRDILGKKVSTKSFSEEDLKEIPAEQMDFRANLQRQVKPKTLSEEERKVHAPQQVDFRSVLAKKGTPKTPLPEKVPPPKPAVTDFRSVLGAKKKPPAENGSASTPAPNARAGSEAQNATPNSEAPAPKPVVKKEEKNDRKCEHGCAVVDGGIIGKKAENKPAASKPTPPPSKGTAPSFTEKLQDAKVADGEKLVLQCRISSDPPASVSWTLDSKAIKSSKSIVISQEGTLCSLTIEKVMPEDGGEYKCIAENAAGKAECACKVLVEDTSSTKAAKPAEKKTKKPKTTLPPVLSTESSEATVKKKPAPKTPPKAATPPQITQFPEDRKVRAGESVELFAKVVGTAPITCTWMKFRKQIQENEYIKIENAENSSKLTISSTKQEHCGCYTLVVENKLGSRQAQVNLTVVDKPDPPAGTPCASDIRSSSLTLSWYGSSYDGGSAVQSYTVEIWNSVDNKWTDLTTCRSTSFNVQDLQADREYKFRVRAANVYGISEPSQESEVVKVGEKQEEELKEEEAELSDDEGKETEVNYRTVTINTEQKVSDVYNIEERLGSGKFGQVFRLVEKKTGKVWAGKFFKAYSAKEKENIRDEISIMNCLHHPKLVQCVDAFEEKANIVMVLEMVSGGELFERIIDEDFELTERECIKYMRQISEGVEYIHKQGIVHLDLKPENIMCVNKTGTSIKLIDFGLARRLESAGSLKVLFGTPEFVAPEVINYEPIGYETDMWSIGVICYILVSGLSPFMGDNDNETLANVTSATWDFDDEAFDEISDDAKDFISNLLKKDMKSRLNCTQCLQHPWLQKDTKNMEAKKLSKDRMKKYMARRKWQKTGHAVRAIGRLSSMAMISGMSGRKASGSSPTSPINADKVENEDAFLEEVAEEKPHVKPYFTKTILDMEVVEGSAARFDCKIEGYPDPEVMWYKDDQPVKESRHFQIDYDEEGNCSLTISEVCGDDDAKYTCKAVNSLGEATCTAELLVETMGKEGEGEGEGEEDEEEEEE

SMILES | IC50 [1] [nM] | IC50 [2] [nM] | IC50 [3] [nM] | IC50 [4] [nM] | IC50 [5] [nM] | IC50 [6] [nM]
Cn1c2ccc(O)cc2c2c3c(c4c5cc(O)ccc5n(CCC#N)c4c21)CNC3=O [3-{7,19-dihydroxy-23-methyl-14-oxo-3,13,23-triazahexacyclo[14.7.0.0^{2,10}.0^{4,9}.0^{11,15}.0^{17,22}]tricosa-1(16),2(10),4(9),5,7,11(15),17,19,21-nonaen-3-yl}propanenitrile] | 30 | 30 |  |  |  | 
COc1ccc2c(c1)c1c3c(c4c5ccccc5n(C)c4c1n2CCC#N)C(=O)NC3=O [3-{7-methoxy-23-methyl-12,14-dioxo-3,13,23-triazahexacyclo[14.7.0.0^{2,10}.0^{4,9}.0^{11,15}.0^{17,22}]tricosa-1(16),2(10),4(9),5,7,11(15),17,19,21-nonaen-3-yl}propanenitrile] | 200 | 49 |  | 16 |  | 
COc1ccc2c(c1)c1c3c(c4c5ccccc5n(C)c4c1n2CC(O)CN(C)C)C(=O)NC3 (stereo unspecified) [12-(3-dimethylamino-2-hydroxypropyl)-9-methoxy-13-methyl-6,7,12,13-tetrahydro-5H-indolo[2,3-a]pyrrolo[3,4-c]carbazol-5-one] | 9200 |  |  |  |  | 
COc1ccc2c(c1)c1c3c(c4c5ccccc5n(C)c4c1n2CC(O)CN(C)C)C(=O)NC3=O (stereo unspecified) [13-(3-dimethylamino-2-hydroxypropyl)-3-methoxy-12-methyl-6,7,12,13-tetrahydro-5H-indolo[2,3-a]pyrrolo[3,4-c]carbazole-5,7-dione] | 120 |  |  |  |  | 
Cn1c2ccccc2c2c3c(c4c5ccccc5n(CCCN)c4c21)CNC3=O [23-(3-aminopropyl)-3-methyl-3,13,23-triazahexacyclo[14.7.0.0^{2,10}.0^{4,9}.0^{11,15}.0^{17,22}]tricosa-1(16),2(10),4,6,8,11(15),17(22),18,20-nonaen-12-one] | 18 | 18 |  |  |  | 
CN(C)CC(O)Cn1c2ccccc2c2c3c(c4c5ccccc5n(C)c4c21)C(=O)NC3=O (stereo unspecified) [23-[3-(dimethylamino)-2-hydroxypropyl]-3-methyl-3,13,23-triazahexacyclo[14.7.0.0^{2,10}.0^{4,9}.0^{11,15}.0^{17,22}]tricosa-1(16),2(10),4,6,8,11(15),17(22),18,20-nonaene-12,14-dione] | 120 | 120 |  |  |  | 
COc1ccc2c(c1)c1c3c(c4c5ccccc5n(CC(O)CN(C)C)c4c1n2C)CNC3=O (stereo unspecified) [23-[3-(dimethylamino)-2-hydroxypropyl]-7-methoxy-3-methyl-3,13,23-triazahexacyclo[14.7.0.0^{2,10}.0^{4,9}.0^{11,15}.0^{17,22}]tricosa-1(16),2(10),4,6,8,11(15),17(22),18,20-nonaen-12-one] |  | 9200 | > 10000 | 86 | 23000 | 15000
COc1ccc2c(c1)c1c3c(c4c5ccccc5n(CC(O)CN(C)C)c4c1n2C)C(=O)NC3=O (stereo unspecified) [23-[3-(dimethylamino)-2-hydroxypropyl]-7-methoxy-3-methyl-3,13,23-triazahexacyclo[14.7.0.0^{2,10}.0^{4,9}.0^{11,15}.0^{17,22}]tricosa-1(16),2(10),4,6,8,11(15),17(22),18,20-nonaene-12,14-dione] |  | 120 |  | 4 | 4800 | 510
CN(C)CCCn1c2ccccc2c2c3c(c4c5ccccc5[nH]c4c21)C(=O)NC3 [23-[3-(dimethylamino)propyl]-3,13,23-triazahexacyclo[14.7.0.0^{2,10}.0^{4,9}.0^{11,15}.0^{17,22}]tricosa-1(16),2(10),4,6,8,11(15),17(22),18,20-nonaen-12-one] | 390 | 390 |  |  |  | > 10000
CN(C)CCCn1c2ccccc2c2c3c(c4c5ccccc5n(C)c4c21)C(=O)NC3 [23-[3-(dimethylamino)propyl]-3-methyl-3,13,23-triazahexacyclo[14.7.0.0^{2,10}.0^{4,9}.0^{11,15}.0^{17,22}]tricosa-1(16),2(10),4,6,8,11(15),17(22),18,20-nonaen-12-one] | 250 | 250 |  |  |  | 
CN(C)CCCn1c2ccc(O)cc2c2c3c(c4c5cc(O)ccc5[nH]c4c21)C(=O)NC3 [23-[3-(dimethylamino)propyl]-7,19-dihydroxy-3,13,23-triazahexacyclo[14.7.0.0^{2,10}.0^{4,9}.0^{11,15}.0^{17,22}]tricosa-1(16),2(10),4,6,8,11(15),17(22),18,20-nonaen-12-one] | 310 | 31 |  |  |  | 

The next lines start with the values.

IC50 [1] [nM] | IC50 [2] [nM] | IC50 [3] [nM] | IC50 [4] [nM] | IC50 [5] [nM] | IC50 [6] [nM] | SMILES
32 |  |  |  |  |  | COc1ccc2c(c1)c1c3c(c4c5ccccc5n(C)c4c1n2CCCC#N)C(=O)NC3=O [3-(9-methoxy-13-methyl-5,7-dioxo-6,7,12,13-tetrahydro-5H-indolo[2,3-a]pyrrolo[3,4-c]carbazol-12-yl)propyl cyanide]
180 |  |  |  |  |  | COc1ccc2c(c1)c1c3c(c4c5cc(OC)ccc5n(CCC#N)c4c1n2C)C(=O)NC3=O [3-{7,19-dimethoxy-23-methyl-12,14-dioxo-3,13,23-triazahexacyclo[14.7.0.0^{2,10}.0^{4,9}.0^{11,15}.0^{17,22}]tricosa-1(16),2(10),4(9),5,7,11(15),17,19,21-nonaen-3-yl}propanenitrile]
1600 | 1600 | > 10000 |  |  |  | COc1ccc2c(c1)c1c3c(c4c5cc(OC)ccc5n(CCC#N)c4c1n2C)CNC3=O [3-{7,19-dimethoxy-23-methyl-14-oxo-3,13,23-triazahexacyclo[14.7.0.0^{2,10}.0^{4,9}.0^{11,15}.0^{17,22}]tricosa-1(16),2(10),4(9),5,7,11(15),17,19,21-nonaen-3-yl}propanenitrile]
49 | 200 | > 10000 | 2 | > 3000 | 400 | COc1ccc2c(c1)c1c3c(c4c5ccccc5n(CCC#N)c4c1n2C)C(=O)NC3=O [3-{19-methoxy-23-methyl-12,14-dioxo-3,13,23-triazahexacyclo[14.7.0.0^{2,10}.0^{4,9}.0^{11,15}.0^{17,22}]tricosa-1(16),2(10),4(9),5,7,11(15),17,19,21-nonaen-3-yl}propanenitrile]
55 |  |  |  |  | > 30000 | Cn1c2ccccc2c2c3c(c4c5ccccc5n(CCC#N)c4c21)C(=O)NC3=O [3-{23-methyl-12,14-dioxo-3,13,23-triazahexacyclo[14.7.0.0^{2,10}.0^{4,9}.0^{11,15}.0^{17,22}]tricosa-1(16),2(10),4(9),5,7,11(15),17,19,21-nonaen-3-yl}propanenitrile]
 | 32 |  | 5 | 1000 | 200 | COc1ccc2c(c1)c1c3c(c4c5ccccc5n(CCCC#N)c4c1n2C)C(=O)NC3=O [4-{19-methoxy-23-methyl-12,14-dioxo-3,13,23-triazahexacyclo[14.7.0.0^{2,10}.0^{4,9}.0^{11,15}.0^{17,22}]tricosa-1(16),2(10),4(9),5,7,11(15),17,19,21-nonaen-3-yl}butanenitrile]
220 | 220 |  |  |  |  | COc1ccc2[nH]c3c(c4c(c5c6cc(OC)ccc6n(CCCN(C)C)c35)CNC4=O)c2c1 [23-[3-(dimethylamino)propyl]-7,19-dimethoxy-3,13,23-triazahexacyclo[14.7.0.0^{2,10}.0^{4,9}.0^{11,15}.0^{17,22}]tricosa-1(16),2(10),4,6,8,11(15),17(22),18,20-nonaen-12-one]
5500 | 5500 | > 100000 |  |  |  | CN(C)CC(O)Cn1c2ccccc2c2c3c(c4c5ccccc5n(C)c4c21)C(=O)NC3 (stereo unspecified) [Indolocarbazole deriv.]
5800 |  | > 10000 |  |  |  | Cn1c2ccccc2c2c3c(c4c5ccccc5n(CCC#N)c4c21)CNC3=O [Indolocarbazole deriv.]

From BindingDB's records for doi:10.1016/0960-894X(94)00458-R (Tumor Biology Center, 1995)
